{"source": "patent US10131652B2", "about": "“Pyrimidinyloxy benzene derivatives as herbicides” (E. I. DU PONT DE NEMOURS AND COMPANY, priority 2014, dated 2018)", "experiment_in_all_cases": "Test D pre-/postemergence plant response", "format_in_all_cases": "in vivo", "key": {"[1]": {"system": "waterhemp (common waterhemp, Amaranthus rudis)", "details": "Amaranthus tuberculatus; for pest or weed control at 31 g/ha: 31 g ai/ha; for pest or weed control at 62 g/ha: 62 g ai/ha; for pest or weed control at 125 g/ha: 125 g ai/ha; for pest or weed control at 250 g/ha: 250 g ai/ha", "description": "(§1) Seeds of plant species selected from blackgrass (Alopecurus myosuroides), Italian ryegrass (Lolium multiflorum), winter wheat (Triticum aestivum), galium (catchweed bedstraw, Galium aparine), corn (Zea mays), large (Lg) crabgrass (Digitaria sanguinalis), giant foxtail (Setaria faberii), johnsongrass (Sorghum halepense), lambsquarters (Chenopodium album), morningglory (Ipomoea coccinea), yellow nutsedge (Cyperus esculentus), pigweed (Amaranthus retroflexus), ragweed (common ragweed, Ambrosia elatior), soybean (Glycine max), bamyardgrass (Echinochloa crus-galli), oilseed rape (Brassica napus), waterhemp (common waterhemp, Amaranthus rudis), and velvetleaf (Abutilon theophrasti) were planted into a blend of loam soil and sand and treated preemergence with test chemicals formulated in a non-phytotoxic solvent mixture which included a surfactant. At the same time, plants selected from these crop and weed species and also kochia (Kochia scoparia), wild oat (Avena fatua), and chickweed (common chickweed, Stellaria media) were planted in pots containing Redi-Earth® planting medium (Scotts Company, 14111 Scottslawn Road, Marysville, Ohio 43041) comprising spaghnum peat moss, vermiculite, wetting agent and starter nutrients and treated with postemergence applications of test chemicals formulated in the same manner. Plants ranged in height from 2 to 18 cm (1- to 4-leaf stage) for postemergence treatments. Treated plants and controls were maintained in a greenhouse for 13 to 15 days, after which time all species were compared to controls and visually evaluated. Plant response ratings, summarized in Table D, are based on a scale of 0 to 100 where 0 is no effect and 100 is complete control. A dash (-) response means no test result."}, "[2]": {"system": "morningglory (Ipomoea coccinea)", "details": "Ipomoea; for pest or weed control at 31 g/ha: 31 g ai/ha; for pest or weed control at 62 g/ha: 62 g ai/ha; for pest or weed control at 125 g/ha: 125 g ai/ha; for pest or weed control at 250 g/ha: 250 g ai/ha", "description": "as §1"}, "[3]": {"system": "velvetleaf (Abutilon theophrasti)", "details": "Abutilon theophrasti; for pest or weed control at 31 g/ha: 31 g ai/ha; for pest or weed control at 62 g/ha: 62 g ai/ha; for pest or weed control at 125 g/ha: 125 g ai/ha; for pest or weed control at 250 g/ha: 250 g ai/ha", "description": "as §1"}, "[4]": {"system": "winter wheat (Triticum aestivum)", "details": "Triticum aestivum; for plant injury at 31 g/ha: 31 g ai/ha; for plant injury at 62 g/ha: 62 g ai/ha; for plant injury at 125 g/ha: 125 g ai/ha; for plant injury at 250 g/ha: 250 g ai/ha", "description": "as §1"}, "[5]": {"system": "johnsongrass (Sorghum halepense)", "details": "Sorghum halepense; for pest or weed control at 31 g/ha: 31 g ai/ha; for pest or weed control at 62 g/ha: 62 g ai/ha; for pest or weed control at 125 g/ha: 125 g ai/ha; for pest or weed control at 250 g/ha: 250 g ai/ha", "description": "as §1"}, "[6]": {"details": "post-emergence, Postemergence, scale 0 to 100, 0 no effect, 100 complete control, read-out: Plant response rating, Waterhemp"}, "[7]": {"details": "pre-emergence, Preemergence, read-out: Plant response rating (scale 0 to 100), Waterhemp"}, "[8]": {"details": "pre-emergence, Preemergence, scale 0 to 100 (0 no effect, 100 complete control), read-out: Plant response rating, Waterhemp"}, "[9]": {"details": "post-emergence, Postemergence, scale 0 to 100, 0 no effect, 100 complete control, read-out: Plant response rating, Morningglory"}, "[10]": {"details": "pre-emergence, Preemergence, read-out: Plant response rating (scale 0 to 100), Morningglory"}, "[11]": {"details": "pre-emergence, Preemergence, scale 0 to 100 (0 no effect, 100 complete control), read-out: Plant response rating, Morningglory"}, "[12]": {"details": "post-emergence, Postemergence, scale 0 to 100, 0 no effect, 100 complete control, read-out: Plant response rating, Velvetleaf"}, "[13]": {"details": "pre-emergence, Preemergence, read-out: Plant response rating (scale 0 to 100), Velvetleaf"}, "[14]": {"details": "pre-emergence, Preemergence, scale 0 to 100 (0 no effect, 100 complete control), read-out: Plant response rating, Velvetleaf"}, "[15]": {"details": "post-emergence, Postemergence, scale 0 to 100, 0 no effect, 100 complete control, read-out: Plant response rating, Wheat"}, "[16]": {"details": "pre-emergence, Preemergence, read-out: Plant response rating (scale 0 to 100), Wheat"}, "[17]": {"details": "pre-emergence, Preemergence, scale 0 to 100 (0 no effect, 100 complete control), read-out: Plant response rating, Wheat"}, "[18]": {"details": "post-emergence, Postemergence, scale 0 to 100, 0 no effect, 100 complete control, read-out: Plant response rating, Johnsongrass"}, "[19]": {"details": "pre-emergence, Preemergence, read-out: Plant response rating (scale 0 to 100), Johnsongrass"}, "[20]": {"details": "pre-emergence, Preemergence, scale 0 to 100 (0 no effect, 100 complete control), read-out: Plant response rating, Johnsongrass"}}, "note": "Like-named read-outs stand apart in the source and are kept apart here."}
{"compound": "FC(F)c1cc(-c2ccccc2Oc2ncc(Br)cn2)no1", "note": "[Compound 62, 5-bromo-2-[2-[5-(difluoromethyl)-3-isoxazolyl]phenoxy]pyrimidine]", "values": [{"measurement": "pest or weed control at 31 g/ha", "setting": "[1]; post-emergence, Postemergence, scale 0 to 100 (0 no effect, 100 complete control), read-out: Waterhemp plant response rating", "value": 98, "unit": "%"}, {"measurement": "pest or weed control at 62 g/ha", "setting": "[1]; [6]", "value": 98, "unit": "%"}, {"measurement": "pest or weed control at 125 g/ha", "setting": "[1]; [6]", "value": 98, "unit": "%"}, {"measurement": "pest or weed control at 250 g/ha", "setting": "[1]; [6]", "value": 100, "unit": "%"}, {"measurement": "pest or weed control at 125 g/ha", "setting": "[1]; [7]", "value": 100, "unit": "%"}, {"measurement": "pest or weed control at 250 g/ha", "setting": "[1]; [7]", "value": 100, "unit": "%"}, {"measurement": "pest or weed control at 31 g/ha", "setting": "[1]; [8]", "value": 100, "unit": "%"}, {"measurement": "pest or weed control at 62 g/ha", "setting": "[1]; [8]", "value": 100, "unit": "%"}, {"measurement": "pest or weed control at 31 g/ha", "setting": "[2]; post-emergence, Postemergence, scale 0 to 100 (0 no effect, 100 complete control), read-out: Morningglory plant response rating", "value": 85, "unit": "%"}, {"measurement": "pest or weed control at 62 g/ha", "setting": "[2]; [9]", "value": 95, "unit": "%"}, {"measurement": "pest or weed control at 125 g/ha", "setting": "[2]; [9]", "value": 95, "unit": "%"}, {"measurement": "pest or weed control at 250 g/ha", "setting": "[2]; [9]", "value": 98, "unit": "%"}, {"measurement": "pest or weed control at 125 g/ha", "setting": "[2]; [10]", "value": 98, "unit": "%"}, {"measurement": "pest or weed control at 250 g/ha", "setting": "[2]; [10]", "value": 100, "unit": "%"}, {"measurement": "pest or weed control at 31 g/ha", "setting": "[2]; [11]", "value": 25, "unit": "%"}, {"measurement": "pest or weed control at 62 g/ha", "setting": "[2]; [11]", "value": 55, "unit": "%"}, {"measurement": "pest or weed control at 31 g/ha", "setting": "[3]; post-emergence, Postemergence, scale 0 to 100 (0 no effect, 100 complete control), read-out: Velvetleaf plant response rating", "value": 60, "unit": "%"}, {"measurement": "pest or weed control at 62 g/ha", "setting": "[3]; [12]", "value": 70, "unit": "%"}, {"measurement": "pest or weed control at 125 g/ha", "setting": "[3]; [12]", "value": 75, "unit": "%"}, {"measurement": "pest or weed control at 250 g/ha", "setting": "[3]; [12]", "value": 85, "unit": "%"}, {"measurement": "pest or weed control at 125 g/ha", "setting": "[3]; [13]", "value": 100, "unit": "%"}, {"measurement": "pest or weed control at 250 g/ha", "setting": "[3]; [13]", "value": 100, "unit": "%"}, {"measurement": "pest or weed control at 31 g/ha", "setting": "[3]; [14]", "value": 90, "unit": "%"}, {"measurement": "pest or weed control at 62 g/ha", "setting": "[3]; [14]", "value": 100, "unit": "%"}, {"measurement": "plant injury at 31 g/ha", "setting": "[4]; post-emergence, Postemergence, scale 0 to 100 (0 no effect, 100 complete control), read-out: Wheat plant response rating", "value": 30, "unit": "%"}, {"measurement": "plant injury at 62 g/ha", "setting": "[4]; [15]", "value": 20, "unit": "%"}, {"measurement": "plant injury at 125 g/ha", "setting": "[4]; [15]", "value": 10, "unit": "%"}, {"measurement": "plant injury at 250 g/ha", "setting": "[4]; [15]", "value": 40, "unit": "%"}, {"measurement": "plant injury at 125 g/ha", "setting": "[4]; [16]", "value": 40, "unit": "%"}, {"measurement": "plant injury at 250 g/ha", "setting": "[4]; [16]", "value": 50, "unit": "%"}, {"measurement": "plant injury at 31 g/ha", "setting": "[4]; [17]", "value": 0, "unit": "%"}, {"measurement": "plant injury at 62 g/ha", "setting": "[4]; [17]", "value": 10, "unit": "%"}, {"measurement": "pest or weed control at 31 g/ha", "setting": "[5]; post-emergence, Postemergence, scale 0 to 100 (0 no effect, 100 complete control), read-out: Johnsongrass plant response rating", "value": 25, "unit": "%"}, {"measurement": "pest or weed control at 62 g/ha", "setting": "[5]; [18]", "value": 25, "unit": "%"}, {"measurement": "pest or weed control at 125 g/ha", "setting": "[5]; [18]", "value": 75, "unit": "%"}, {"measurement": "pest or weed control at 250 g/ha", "setting": "[5]; [18]", "value": 85, "unit": "%"}, {"measurement": "pest or weed control at 125 g/ha", "setting": "[5]; [19]", "value": 90, "unit": "%"}, {"measurement": "pest or weed control at 250 g/ha", "setting": "[5]; [19]", "value": 98, "unit": "%"}, {"measurement": "pest or weed control at 31 g/ha", "setting": "[5]; [20]", "value": 30, "unit": "%"}, {"measurement": "pest or weed control at 62 g/ha", "setting": "[5]; [20]", "value": 75, "unit": "%"}]}
